This note sets out measurements from patent US20250221996A1, “HETEROCYCLIC COMPOUNDS, COMPOSITIONS THEREOF, AND METHODS OF TREATMENT THEREWITH” (BeiGene, Ltd., priority 2022, published 2025).

Structures are written as SMILES.

The test system of the first experiment is pERK1/2(THR202/TYR204) level in AsPC-1 cells. In words: pERK assay (HTRF) in AsPC-1 cell line. The class given is cell-based. As to conditions: 2 h compound treatment. The method, then:
AsPC-1 cell line was used in this study. Cells were maintained in RPMI-1640 supplemented with 10% fetal bovine serum (Thermo Fisher), 50 units/mL penicillin and streptomycin (Thermo Fisher) and kept at 37° C. in a humidified atmosphere of 5% CO2 in air. Cells were reinstated from frozen stocks that were laid down within 30 passages from the original cells purchased. 30000 cells per well were seeded into a 96-well plate and incubated overnight. Cells were treated with a 10-point dilution series. The final compound concentration is from 0 to 10 μM. After 2 h compound treatment, cells were lysed, and the pERK1/2(THR202/TYR204) level in the cell lysates was detected by HTRF kit (Cisbio). In brief, a total of 16 μL of cell lysate from each well of a 96-well plate was transferred to a 384-well white assay plate. Lysate from each well was incubated with 2 μL of Eu3+-cryptate (donor) labeled anti-phospho-ERK1/2 and 2 μL of D2 (acceptor) labeled anti-phospho-ERK1/2 antibodies (Cisbio) overnight in dark at room temperature. When donor and acceptor are in close proximity, excitation of the donor with laser triggers a Fluorescence Resonance Energy Transfer (FRET) towards the acceptor, which in turn fluoresces at 655 nm wavelength. FRET signals were measured using a PHERAstar FSX reader (BMG Labtech). IC50 determination was performed by fitting the curve of percent inhibition versus the log of the inhibitor concentration using Dotmatics.
As for `N#Cc1c(N)sc2c(F)ccc(-c3c(C(F)(F)F)cc4c(N5CC6CCC(C5)N6)nc(OCC5(C#N)CCOCC5)nc4c3F)c12` (single isomer, unassigned) [Example 22-Isomer 2, 4-(((7-(2-amino-3-cyano-7-fluorobenzo[b]thiophen-4-yl)-4-(3,8-diazabicyclo[3.2.1]octan-3-yl)-8-fluoro-6-(trifluoromethyl)quinazolin-2-yl)oxy)methyl)tetrahydro-2H-pyran-4-carbonitrile], the IC50 – broadly, the concentration that inhibits the measured activity by half – amounted to 72 nM.

The same experiment, now with this note: Homo sapiens, ASPC1, 2 h, 2 h compound treatment.
In turn, `N#Cc1c(N)sc2c(F)ccc(-c3c(C(F)(F)F)cc4c(N5CC6CCC(C5)N6)nc(OCC5(C(F)F)COC5)nc4c3F)c12` (single isomer, unassigned) [Example 48-Isomer 2, 4-(4-(3,8-diazabicyclo[3.2.1]octan-3-yl)-2-((3-(difluoromethyl)oxetan-3-yl)methoxy)-8-fluoro-6-(trifluoromethyl)quinazolin-7-yl)-2-amino-7-fluoro benzo[b]thiophene-3-carbonitrile] came in with an IC50 of 65 nM.
The same measure, in the same setting: the figure for `COC1(COc2nc(N3CC4CCC(C3)N4)c3cc(C(F)(F)F)c(-c4ccc(F)c5sc(N)c(C#N)c45)c(F)c3n2)CCOC1` (centres unmarked) [Example 3-Mixture 1, 4-(4-(3,8-diazabicyclo[3.2.1]octan-3-yl)-8-fluoro-2-((3-methoxytetra hydrofuran-3-yl)methoxy)-6-(trifluoromethyl)quinazolin-7-yl)-2-amino-7-fluoro benzo[b]thiophene-3-carbonitrile] is 1730 nM; for `N#Cc1c(N)sc2c(F)ccc(-c3c(C(F)(F)F)cc4c(N5CC6CCC(C5)N6)nc(OCC5(O)CCOC5)nc4c3F)c12` (centres unmarked) [Example 6, 4-(4-(3,8-diazabicyclo[3.2.1]octan-3-yl)-8-fluoro-2-((3-hydroxytetrahydrofuran-3-yl)methoxy)-6-(trifluoromethyl)quinazolin-7-yl)-2-amino-7-fluoro benzo[b]thiophene-3-carbonitrile] it is 187 nM.
In turn, `N#Cc1c(N)sc2c(F)ccc(-c3c(C(F)(F)F)cc4c(N5CC6CCC(C5)N6)nc(OCC56CCC(C5)OC6)nc4c3F)c12` (centres unmarked) [Example 7, 4-(2-((2-oxabicyclo[2.2.1]heptan-4-yl)methoxy)-4-(3,8-diazabicyclo[3.2.1]octan-3-yl)-8-fluoro-6-(trifluoromethyl)quinazolin-7-yl)-2-amino-7-fluorobenzo[b]thiophene-3-carbonitrile] yielded an IC50 of 112 nM.
Same read-out and setting: for `COC(=O)N1CC(C)(COc2nc(N3CC4CCC(C3)N4)c3cc(C(F)(F)F)c(-c4ccc(F)c5sc(N)c(C#N)c45)c(F)c3n2)C1` [Example 8, methyl 3-(((7-(2-amino-3-cyano-7-fluorobenzo[h]thiophen-4-yl)-4-(3,8-diazabicyclo[3.2.1]octan-3-yl)-8-fluoro-6-(trifluoromethyl)quinazolin-2-yl)oxy)methyl)-3-methylazetidine-1-carboxylate] the value was 159 nM.
Same read-out and setting: for `CCC12CC(COc3nc(N4CC5CCC(C4)N5)c4cc(C(F)(F)F)c(-c5ccc(F)c6sc(N)c(C#N)c56)c(F)c4n3)(CO1)C2` [Example 12, 4-(4-(3,8-diazabicyclo[3.2.1]octan-3-yl)-2-((1-ethyl-2-oxabicyclo [2.1.1]hexan-4-yl)methoxy)-8-fluoro-6-(trifluoromethyl)quinazolin-7-yl)-2-amino-7-fluorobenzo[h]thiophene-3-carbonitrile] the value was 1730 nM; for `CC(=O)N1CC(C)(COc2nc(N3CC4CCC(C3)N4)c3cc(C(F)(F)F)c(-c4ccc(F)c5sc(N)c(C#N)c45)c(F)c3n2)C1` [Example 13, 4-(2-((1-acetyl-3-methylazetidin-3-yl)methoxy)-4-(3,8-diazabicyclo[3.2.1]octan-3-yl)-8-fluoro-6-(trifluoromethyl)quinazolin-7-yl)-2-amino-7-fluorobenzo[b]thiophene-3-carbonitrile], 146 nM.
For `CC12CC(COc3nc(N4CC5CCC(C4)N5)c4ccc(-c5ccc(F)c6sc(N)c(C#N)c56)c(F)c4n3)(CO1)C2` [Example 15, 4-(4-(3,8-diazabicyclo[3.2.1]octan-3-yl)-8-fluoro-2-((1-methyl-2-oxabicyclo[2.1.1]hexan-4-yl)methoxy)quinazolin-7-yl)-2-amino-7-fluorobenzo[b] thiophene-3-carbonitrile], the IC50 was found to be 7140 nM.
Still for that read-out and setting: for `CC12CC(COc3nc(N4C5CNCC4COC5)c4cc(C(F)(F)F)c(-c5ccc(F)c6sc(N)c(C#N)c56)c(F)c4n3)(CO1)C2` [Example 16, 4-(4-(3-oxa-7,9-diazabicyclo[3.3.1]nonan-9-yl)-8-fluoro-2-((1-methyl-2-oxabicyclo[2.1.1]hexan-4-yl)methoxy)-6-(trifluoromethyl)quinazolin-7-yl)-2-amino-7-fluorobenzo[b]thiophene-3-carbonitrile] the value was 143 nM.
Same read-out and setting: for `CC1(CC#N)CN(c2nc(N3CC4CCC(C3)N4)c3cc(C(F)(F)F)c(-c4ccc(F)c5sc(N)c(C#N)c45)c(F)c3n2)C1` [Example 17] the value was 561 nM; for `CC1(COc2nc(N3CC4CCC(C3)N4)c3cc(C(F)(F)F)c(-c4ccc(F)c5sc(N)c(C#N)c45)c(F)c3n2)COC1` [Example 18, 4-(4 (3,8-diazabicyclo[3.2.1]octan-3-yl)-8-fluoro-2-((3-methyloxetan-3-yl)methoxy)-6-(trifluoromethyl)quinazolin-7-yl)-2-amino-7-fluorobenzo [b]thiophene-3-carbonitrile], 146 nM; for `N#Cc1c(N)sc2c(F)ccc(-c3c(C(F)(F)F)cc4c(N5CC6CCC(C5)N6)nc(OCC5(O)CCOCC5)nc4c3F)c12` [Example 19, 4-(4-(3,8-diazabicyclo[3.2.1]octan-3-yl)-8-fluoro-2-((4-hydroxytetrahydro-2H-pyran-4-yl)methoxy)-6-(trifluoromethyl)quinazolin-7-yl)-2-amino-7-fluorobenzo[b]thiophene-3-carbonitrile], 326 nM.
The same measure, in the same setting: for `COC(=O)N1CC(COc2nc(N3CC4CCC(C3)N4)c3cc(C(F)(F)F)c(-c4ccc(F)c5sc(N)c(C#N)c45)c(F)c3n2)(OC)C1` [Example 20, methyl 3-(((7-(2-amino-3-cyano-7-fluorobenzo[b]thiophen-4-yl)-4-(3,8-diazabicyclo[3.2.1]octan-3-yl)-8-fluoro-6-(trifluoromethyl)quinazolin-2-yl)oxy)methyl)-3-methoxyazetidine-1-carboxylate] the value was 188 nM; for `N#Cc1c(N)sc2c(F)ccc(-c3c(C(F)(F)F)cc4c(N5CC6CCC(C5)N6)nc(OCC56COC(CO)(C5)C6)nc4c3F)c12` [Example 21, 4-(4-(3,8-diazabicyclo[3.2.1]octan-3-yl)-8-fluoro-2-((1-(hydroxymethyl)-2-oxabicyclo[2.1.1]hexan-4-yl)methoxy)-6-(trifluoromethyl)quinazolin-7-yl)-2-amino-7-fluorobenzo[b]thiophene-3-carbonitrile], 760 nM; for `N#Cc1c(N)sc2c(F)ccc(-c3c(C(F)(F)F)cc4c(N5CC6CCC(C5)N6)nc(OCC5CCOCC5)nc4c3F)c12` [Example 23, 4-(4-(3,8-diazabicyclo[3.2.1]octan-3-yl)-8-fluoro-2-((tetrahydro-2H-pyran-4-yl)methoxy)-6-(trifluoromethyl)quinazolin-7-yl)-2-amino-7-fluorobenzo[b]thiophene-3-carbonitrile], 334 nM.
In the case of `Cn1ccnc1N1CC(COc2nc(N3CC4CCC(C3)N4)c3cc(C(F)(F)F)c(-c4ccc(F)c5sc(N)c(C#N)c45)c(F)c3n2)C1` [Example 24, 4-(4-(3,8-diazabicyclo[3.2.1]octan-3-yl)-8-fluoro-2-((1-(1-methyl-1H-imidazol-2-yl)azetidin-3-yl)methoxy)-6-(trifluoromethyl)quinazolin-7-yl)-2-amino-7-fluorobenzo[b]thiophene-3-carbonitrile], the IC50 was 200 nM.
Same read-out and setting: the figure for `N#Cc1c(N)sc2c(F)ccc(-c3c(C(F)(F)F)cc4c(N5CC6CCC(C5)N6)nc(OCC5(F)CCOC5)nc4c3F)c12` (centres unmarked) [Example 25, 4-(4-(3,8-diazabicyclo[3.2.1]octan-3-yl)-8-fluoro-2-((3-fluorotetra hydrofuran-3-yl)methoxy)-6-(trifluoromethyl)quinazolin-7-yl)-2-amino-7-fluoro benzo[b]thiophene-3-carbonitrile] is 201 nM.
`N#Cc1c(N)sc2c(F)ccc(-c3c(C(F)(F)F)cc4c(N5CC6CCC(C5)N6)nc(OCC5(C(F)(F)F)CCOC5)nc4c3F)c12` (centres unmarked) [Example 26, 4-(4-(3,8-diazabicyclo[3.2.1]octan-3-yl)-8-fluoro-6-(trifluoromethyl)-2-((3-(trifluoromethyl)tetrahydrofuran-3-yl)methoxy)quinazolin-7-yl)-2-amino-7-fluorobenzo[b]thiophene-3-carbonitrile] displayed an IC50 of 1460 nM.
Still for that read-out and setting: the figure for `CC1(O)COCC1COc1nc(N2CC3CCC(C2)N3)c2cc(C(F)(F)F)c(-c3ccc(F)c4sc(N)c(C#N)c34)c(F)c2n1` (centres unmarked) [Example 27, 4-(4-(3,8-diazabicyclo[3.2.1]octan-3-yl)-8-fluoro-2-((4-hydroxy-4-methyltetrahydrofuran-3-yl)methoxy)-6-(trifluoromethyl)quinazolin-7-yl)-2-amino-7-fluorobenzo[b]thiophene-3-carbonitrile] is 975 nM.
